# Measured values from patent publication US4401660A, “Ester derivatives of 5-O-mycaminosyl tylonolide and method of using same” (Eli Lilly and Company, priority 1981, dated 1983).
# Read-outs that look alike come from different tables or passages of the source.
# Legend:
# [1] = test system: Haemophilus influenzae Holt; assay: MIC, standard agar-dilution assay (Table II); format: cell-based; design: unit not given here; conditions: ampicillin-sensitive strain
# Protocol: (§1) The MIC's in Table II were determined by standard agar-dilution assays. The MIC's in Table III were obtained using a conventional broth-dilution microtiter test.
# [2] = test system: Streptococcus Group D 9960; assay: MIC, standard agar-dilution assay (Table II); format: cell-based; design: unit not given here
# Protocol: as §1
# [3] = test system: Staphylococcus aureus X1.1; assay: MIC, standard agar-dilution assay (Table II); format: cell-based; design: unit not given here
# Protocol: as §1
# [4] = test system: Staphylococcus aureus X400; assay: MIC, standard agar-dilution assay (Table II); format: cell-based; design: unit not given here; conditions: Staphylococcus aureus X400, methicillin-resistant strain
# Protocol: as §1
# [5] = test system: Streptococcus pneumoniae Park I; assay: MIC, standard agar-dilution assay (Table II); format: cell-based; design: unit not given here
# Protocol: as §1
# [6] = test system: Streptococcus pyogenes C203; assay: MIC, standard agar-dilution assay (Table II); format: cell-based; design: unit not given here
# Protocol: as §1
# [7] = test system: Haemophilus influenzae R252; assay: MIC, standard agar-dilution assay (Table II); format: cell-based; design: unit not given here; conditions: Haemophilus influenzae R252, ampicillin-resistant strain
# Protocol: as §1
# [8] = test system: Staphylococcus epidermidis EPI1; assay: MIC, standard agar-dilution assay (Table II); format: cell-based; design: unit not given here
# Protocol: as §1
# [9] = test system: Staphylococcus aureus S13E; assay: MIC, standard agar-dilution assay (Table II); format: cell-based; design: unit not given here
# Protocol: as §1
# [10] = test system: Staphylococcus epidermidis EPI2; assay: MIC, standard agar-dilution assay (Table II); format: cell-based; design: unit not given here
# Protocol: as §1
# [11] = test system: Streptococcus Group D X66; assay: MIC, standard agar-dilution assay (Table II); format: cell-based; design: unit not given here
# Protocol: as §1
# [12] = test system: Staphylococcus aureus V41; assay: MIC, standard agar-dilution assay (Table II); format: cell-based; design: unit not given here; conditions: Staphylococcus aureus V41, penicillin-resistant strain
# Protocol: as §1
# [13] = test system: Streptococcus pyogenes C203; assay: ED50 in mice with experimental infections (Table IV); format: in vivo; conditions: Streptococcus pyogenes, doses given 1 and 4 hours postinfection
# How it was run: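 Mice with experimental infections received test compound twice, at 1 and 4 h postinfection. ED50 is the dose in mg/kg (per administration, ×2) protecting 50% of animals.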
# Mycoplasma hyorhinis = assay: MIC, broth-dilution microtiter test (Table III); format: cell-based; design: unit not given here
# Protocol: as §1
# [14] = test system: Pasteurella haemolytica 41D; assay: MIC, broth-dilution microtiter test (Table III); format: cell-based; design: unit not given here
# Protocol: as §1
# [15] = test system: Pasteurella haemolytica 23C; assay: MIC, broth-dilution microtiter test (Table III); format: cell-based; design: unit not given here
# Protocol: as §1
# [16] = test system: Pasteurella multocida 60A; assay: MIC, broth-dilution microtiter test (Table III); format: cell-based; design: unit not given here; conditions: avian isolate
# Protocol: as §1
# Mycoplasma gallisepticum = assay: MIC, broth-dilution microtiter test (Table III); format: cell-based; design: unit not given here
# Protocol: as §1
# [17] = test system: Pasteurella haemolytica 22C; assay: MIC, broth-dilution microtiter test (Table III); format: cell-based; design: unit not given here
# Protocol: as §1
# [18] = test system: Pasteurella multocida 68C; assay: MIC, broth-dilution microtiter test (Table III); format: cell-based; design: unit not given here
# Protocol: as §1
# Mycoplasma synoviae = assay: MIC, broth-dilution microtiter test (Table III); format: cell-based; design: unit not given here
# Protocol: as §1
# [19] = test system: Pasteurella multocida 40G; assay: MIC, broth-dilution microtiter test (Table III); format: cell-based; design: unit not given here
# Protocol: as §1
# Streptococcus sp. 80 = assay: MIC, broth-dilution microtiter test (Table III); format: cell-based; design: unit not given here
# Protocol: as §1
# Staphylococcus aureus = assay: MIC, broth-dilution microtiter test (Table III); format: cell-based; design: unit not given here
# Protocol: as §1
# [20] = test system: Pasteurella multocida 22A; assay: MIC, broth-dilution microtiter test (Table III); format: cell-based; design: unit not given here
# Protocol: as §1
# [21] = test system: Pasteurella multocida 17E; assay: MIC, broth-dilution microtiter test (Table III); format: cell-based; design: unit not given here; conditions: bovine isolate
# Protocol: as §1
# Pasteurella multocida = assay: Treatment of Pasteurella infections in chicks (Table V); format: in vivo, one-day-old chicks; conditions: Pasteurella multocida, sc, 4 h; 30 mg/kg by subcutaneous injection one and four hours post challenge; read-out: Deaths in Treated Chicks/Number Treated (converted)
# How it was run: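 One-day-old chicks challenged subcutaneously with avian P. multocida (0.1 ml of 10^-3 dilution of 20-hour tryptose broth culture). Esters given at 30 mg/kg subcutaneously at 1 and 4 hours post challenge. Untreated infected controls, ten per group.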
# [22] = C203, oral, read-out: ED50, Oral
# [23] = C203, sc, subcutaneous, read-out: ED50, Subcutaneous
SMILES,minimal inhibitory concentration (MIC) [1],minimal inhibitory concentration (MIC) [2],minimal inhibitory concentration (MIC) [3],minimal inhibitory concentration (MIC) [4],minimal inhibitory concentration (MIC) [5],minimal inhibitory concentration (MIC) [6],minimal inhibitory concentration (MIC) [7],minimal inhibitory concentration (MIC) [8],minimal inhibitory concentration (MIC) [9],minimal inhibitory concentration (MIC) [10],minimal inhibitory concentration (MIC) [11],minimal inhibitory concentration (MIC) [12],"ED50 [13, 22]","ED50 [13, 23]",minimal inhibitory concentration (MIC) (Mycoplasma hyorhinis),minimal inhibitory concentration (MIC) [14],minimal inhibitory concentration (MIC) [15],minimal inhibitory concentration (MIC) [16],minimal inhibitory concentration (MIC) (Mycoplasma gallisepticum),minimal inhibitory concentration (MIC) [17],other results
"CCC1OC(=O)CC(O)C(C)C(OC2OC(C)C(OC(C)=O)C(N(C)C)C2OC(C)=O)C(CC=O)CC(C)C(=O)C=CC(C)=CC1CO (stereo not shown) [Compound 3, 2',4'-Di-O-acetyl-OMT]",2,2,2,4,0.25,0.5,4,1,2,1,2,4,139 mg/kg,> 15 mg/kg,3.12,6.25,6.25,3.12,0.78,12.5,minimal inhibitory concentration (MIC) [18]: 1.56; minimal inhibitory concentration (MIC) (Mycoplasma synoviae): 0.195; minimal inhibitory concentration (MIC) [19]: 6.25; minimal inhibitory concentration (MIC) (Streptococcus sp. 80): < 0.78; minimal inhibitory concentration (MIC) (Staphylococcus aureus): 1.56; minimal inhibitory concentration (MIC) [20]: 3.12; minimal inhibitory concentration (MIC) [21]: 3.12; mortality at 30 mg/kg (Pasteurella multocida): 0%
CCC1OC(=O)CC(O)C(C)C(OC2OC(C)C(O)C(N(C)C)C2O)C(CC=O)CC(C)C(=O)C=CC(C)=CC1COC(=O)C(C)(C)C (stereo not shown) [Compound 68],1,0.25,0.25,0.25,0.06,0.125,2,0.25,0.25,0.25,0.25,0.25,> 100 mg/kg,3.8 mg/kg,0.097,6.25,3.12,3.12,0.097,6.25,minimal inhibitory concentration (MIC) [18]: 1.56; minimal inhibitory concentration (MIC) (Mycoplasma synoviae): < 0.048; minimal inhibitory concentration (MIC) [19]: 3.12; minimal inhibitory concentration (MIC) (Streptococcus sp. 80): < 0.78; minimal inhibitory concentration (MIC) (Staphylococcus aureus): 1.56; minimal inhibitory concentration (MIC) [20]: 3.12; minimal inhibitory concentration (MIC) [21]: 3.12; mortality at 30 mg/kg (Pasteurella multocida): 0%
CCC1OC(=O)CC(O)C(C)C(OC2OC(C)C(O)C(N(C)C)C2O)C(CC=O)CC(C)C(=O)C=CC(C)=CC1COS(=O)(=O)c1ccc(C)cc1 (stereo not shown) [Compound 46],1,0.25,0.25,0.25,0.03,0.125,1,0.25,0.25,0.25,0.25,0.25,146 mg/kg,15 mg/kg,0.78,3.12,3.12,1.56,0.05,3.12,minimal inhibitory concentration (MIC) [18]: 3.12; minimal inhibitory concentration (MIC) (Mycoplasma synoviae): 0.097; minimal inhibitory concentration (MIC) [19]: 6.25; minimal inhibitory concentration (MIC) (Streptococcus sp. 80): 0.097; minimal inhibitory concentration (MIC) (Staphylococcus aureus): 0.195; minimal inhibitory concentration (MIC) [20]: 6.25; minimal inhibitory concentration (MIC) [21]: 3.12; mortality at 30 mg/kg (Pasteurella multocida): 80%
"CCC1OC(=O)CC(O)C(C)C(OC2OC(C)C(O)C(N(C)C)C2O)C(CC=O)CC(C)C(=O)C=CC(C)=CC1COC(=O)Cc1ccccc1 (stereo not shown) [Compound 29, 23-O-Phenylacetyl-OMT]",0.5,0.125,0.125,0.125,0.03,0.06,1,0.125,0.125,0.25,0.125,0.125,> 100 mg/kg,5 mg/kg,0.195,3.12,3.12,0.78,0.05,3.12,minimal inhibitory concentration (MIC) [18]: 1.56; minimal inhibitory concentration (MIC) (Mycoplasma synoviae): 0.05; minimal inhibitory concentration (MIC) [19]: 1.56; minimal inhibitory concentration (MIC) (Streptococcus sp. 80): 0.05; minimal inhibitory concentration (MIC) (Staphylococcus aureus): 0.097; minimal inhibitory concentration (MIC) [20]: 1.56; minimal inhibitory concentration (MIC) [21]: 1.56; mortality at 30 mg/kg (Pasteurella multocida): 0%
